Assay results taken from US20150196025A1, “BIOACTIVE HEME-HALOPEROXIDASE COMPOSITIONS AND METHODS OF THEIR USE” (Exoxemis, Inc., priority 2014, published 2015).

Assays:
Type in all cases: cell-based, Staphylococcus aureus
S. aureus [1] = experiment: Microbicidal plate assay, pEPO with amine additives, aged 0 or 5 minutes with H2O2 (Example 7); settings: FIG. 7, 10 ug/mL pEPO, additive 3 mM, 2 mM NaBr; for microbicidal activity, Reaction 2 (aged 5 minutes with H2O2): 0.89 mM H2O2; for microbicidal activity, Reaction 1 (aged 0 min): 0.89 mM H2O2, one minute, 10^8 cfu/mL
S. aureus [2] = experiment: Microbicidal plate assay, hydrogen peroxide/pEPO/ethanolamine versus neat hydrogen peroxide (Example 4)
S. aureus [3] = experiment: Microbicidal plate assay, pEPO formulations aged two minutes to ninety-six hours with H2O2 (Examples 8 and 9); settings: 50 ug/mL pEPO, 20 mM additive; for microbicidal activity, Reaction 1 (aged two minutes): FIG. 9A; for microbicidal activity, Reaction 1 (aged two minutes) / microbicidal activity, Reaction 2 (aged twenty-four hours) / retention of microbicidal activity on ageing: 10 mM NaBr, 8.9 mM H2O2; for microbicidal activity, Reaction 2 (aged twenty-four hours): FIG. 9B; for retention of microbicidal activity on ageing: FIGS. 8A-8C, aged two minutes, twenty-four or ninety-six hours; for kill of the microbes added to aged formulations: aged for up to ninety-six hours before the addition of bacteria
S. aureus [4] = experiment: Microbicidal plate assay, formulations aged 1 or 30 minutes before adding bacteria, with or without ethanolamine (Examples 5 and 6); settings: FIG. 6 compared to FIG. 5
Description: S. aureus (10^9 cfu/mL, final concentration) was added and the reaction was incubated at room temperature for one minute. The reaction was stopped by plating. The plates were incubated overnight at 36° C.
The reactions described in Example 4 were repeated with Formulations F for plates 2-5 with the added condition that the formulations were incubated (aged) 1 or 30 minutes prior to adding the S. aureus bacteria. The reaction was incubated at room temperature for one minute after the addition of bacteria. An additional sample was added (100 μg/mL pEPO; 8.9 mM H2O2; 20 mM ethanolamine; and 20 mmM NaBr).
The reactions were carried out as described in Example 5.

Compound: OCCNCCO [diethanolamine]
- microbicidal activity, Reaction 2 (aged 5 minutes with H2O2) (S. aureus [1]): maintained microbicidal activity
- microbicidal activity, Reaction 1 (aged 0 min) (S. aureus [1]): some microbicidal activity

Compound: OO [hydrogen peroxide]
- concentration of H2O2 effective to result in a complete kill (as low as) (S. aureus [2]): 0.5 mM
- killing the bacteria by neat hydrogen peroxide (S. aureus [2]; 89 mM (0.3%), no pEPO, one minute): ineffective in killing the bacteria
- kill of the bacteria (S. aureus [2]; hydrogen peroxide 0.5 mM with the addition of pEPO, Plate 2): 100%

Compound: COC(=O)CN [glycine methyl ester, Glycine methyl ester, reference compound]
- microbicidal activity, Reaction 1 (aged two minutes) (S. aureus [3]): show initial microbicidal activity
- microbicidal activity, Reaction 2 (aged twenty-four hours) (S. aureus [3]): lose microbicidal activity after twenty-four hours

Compound: NCCCO [propanolamine]
- retention of microbicidal activity on ageing (S. aureus [3]): retain microbicidal activity up to at least ninety-six hours
- kill of the microbes added to aged formulations (S. aureus [3]): complete kill

Compound: NCC(N)=O [glycinamide, Glycinamide, reference compound]
- microbicidal activity, Reaction 1 (aged two minutes) (S. aureus [3]): show initial microbicidal activity
- microbicidal activity, Reaction 2 (aged twenty-four hours) (S. aureus [3]): lose microbicidal activity after twenty-four hours

Compound: NCCO [ethanolamine]
- microbicidal activity, Reaction 2 (aged twenty-four hours) (S. aureus [3]): retain microbicidal activity for twenty-four hours
- retention of microbicidal activity on ageing (S. aureus [3]): retain microbicidal activity up to at least ninety-six hours
- kill of the microbes added to aged formulations (S. aureus [3]): complete kill
- microbicidal activity, Reaction 2 (aged 5 minutes with H2O2) (S. aureus [1]): maintained microbicidal activity
- microbicidal activity, Reaction 1 (aged 0 min) (S. aureus [1]): some microbicidal activity
- effect of ethanolamine on microbicidal activity (S. aureus [4]): significantly enhances the microbicidal activity of pEPO/H2O2 compositions

Compound: N[C@@H](CO)C(=O)O [serine, L-serine, reference compound]
- microbicidal activity, Reaction 2 (aged 5 minutes with H2O2) (S. aureus [1]): only formulations comprising pEPO and ethanolamine or diethanolamine maintained microbicidal activity
- microbicidal activity, Reaction 1 (aged 0 min) (S. aureus [1]): some microbicidal activity
